Laboratory results from patent publication US12275685B2, “Oligo-benzamide analogs and their use in cancer treatment” (Board of Regents, The University of Texas System, priority 2018, dated 2025).
Where two headings read alike, the source gives them in different places.

Key:
ERα = type: cell-based; conditions: MT-ERα, 200 nM
[1] = tested on: MT-ERα expressing BC metastasis; test: Metastatic models (intracardiac, intratibial injection); type: in vivo, mice
Method: FIG. 63: Following intracardiac injection of luciferase-tagged ZR-75 MT-ERα Y537S tumors, mice are imaged five at a time under 2% isoflurane gas anesthesia. Each mouse is injected with D-Luciferin and imaged 10-15 minutes after the injection. BLI signal is quantified in regions of interest (ROIs) drawn around tumors, specific areas (for example cranial, thoracic or abdominal), whole body or tissues ex vivo and the signal is expressed as photons per second, representing the flux radiating omni-directionally from the user-defined region. Images are analyzed using Living Image 4.3.1 (PerkinElmer, Waltham, MA) software. Once the tumors were established (40,000 luminescene counts at 30 seconds exposure), mice were treated either with vehicle or TX-542. […] Relative luminescence counts are mapped (middle panel). Mice were sacrificed once symptomatic and the survival curves for vehicle treated (black) or TX-542 treated (red) are graphed (right panel) (n=6 in each group).
Once tumors were established, daily treatment of mice with either vehicle or TX-542 (10 mg/kg/ip) were performed. Results are shown and graphed (n=6).
(§1) Since MT-ERα is primarily expressed in metastases, the inventors used metastatic models to evaluate effect of TX-542 on the development and progression of metastasis.

Protein binding = type: in vitro ADME
[2] = tested on: BC cells expressing MT-ERα; test: Boyden chamber invasion assay; type: cell-based
From the text: FIG. 62: Effect of TX-542 on invasiveness of BC cells expressing Erα mutants in a Boyden chamber assay.
as §1

MCF-7 MT-ERα Y537S cells = type: cell-based; conditions: 200 nM
MT-ERα [3] = test: ERE luciferase reporter gene assay, TX-542; type: cell-based; conditions: minimal promoter with three copies of ERE
[4] = tested on: BC cells expressing WT-ERα and MT-ERα; test: Clonogenic assay; type: cell-based; conditions: 100 nM
Method: FIG. 53: Effect of 100 nM TX-542 on clonogenic survival of WT-ERα and MT-ERα BC cell lines.
(§2) The 200 nM dose for these drugs reflects the level at which each of these drugs has a significant effect on spheroid formation in the MCF-7 WT-ERa cells. Taken together, these studies indicate that TX-542 has significant activity against both WT-ERα and MT-ERα driven ERα+ BC cell lines and is a worthwhile candidate for further study.

[5] = tested on: ER-null (SUM-159 or MDA-MB-231 cells); test: Antiproliferative assay in ER-null cells; type: cell-based
From the text: (§3) FIG. 52: Comparative efficacy of TX-542 and SERDs in BC cells expressing WT and/or MT ERα: Using CRISPR-Cas9, both copies of WT ERα genes were knocked out in ZR-75 and T47-D, while only one copy of WT Era was knocked out in MCF-7 cells. Following knockout of WT ERα clones with stable expression of either Y537S ERα MT or the D538G ERα MT were selected. […] ERα-negative TNBC cells (SUM-159 and MDA-MB-231) were used as controls. Dose response curves were generated for ERX-11, TX-542 and SERDs using cell titer glo assays. IC50 values for each cell line and drug were calculated and tabulated. Tam=tamoxifen, ICI=fulvestrant, GDC-0810=Genentech SERD, AZD-9496 Astra Zeneca SERD, RAD-1901=Radius SERD, Palbo=Palbociclib. IC50 values<50 nM are shown in red.
(§4) TX-542. TX-542 was potent (IC50˜20-50 nM) as an antiproliferative agent against expressing MT-ERα, both in genetically modified MCF-7 cells with one WT-ERα allele and one MT-ERα allele introduced by CRISPR and genetically modified ZR-75 or T47-D cells in which both copies of WT-ERα alleles were replaced using CRISPR with MT-ERα. TX-542 had no activity against ER-null (SUM-159 or MDA-MB-231 cells) or non-tumorigenic breast epithelial cells, such as human mammary epithelial cells (HMEC). […] In addition, these agents are not able to consistently target all the MT-ERα forms in distinct genetic contexts, as shown in FIG. 52 and as reported by others.

[6] = tested on: MT-ERα expressing BC cells; test: Apoptosis by annexin staining; type: cell-based; conditions: within 72 h after treatment, 200 nM
Method: FIG. 55: Effect of 200 nM TX-542 on apoptosis of MT-ERα expressing BC cells.
as §2

[7] = tested on: BC cells expressing MT-ERα (MCF-7, ZR-75, T47-D); test: Cell titer glo antiproliferative assay in MT-ERα BC cells; type: cell-based
From the text: as §3, §4

[8] = Pharmacokinetic profile of TX-542; type: in vivo
Method: FIG. 58: PK properties of TX-542 indicate a half-life in plasma of 8 h and accumulation over time in tumor.
(§5) To establish the pharmacokinetic (PK) profile of TX-542, the inventors worked with the UTSW preclinical pharmacology core to characterize pharmacologic properties of TX-542 (FIG. 58). These studies indicated an 8-h half-life of TX-542 in the plasma, with drug detectable in both the liver and kidney after intraperitoneal (i.p.) administration.

[9] = tested on: human mammary epithelial cells (HMEC); test: Antiproliferative assay of TX-542 in HMEC; type: cell-based
Method: as §4

MT-ERα [10] = test: ChIP of MT-ERα DNA binding, TX-542; type: cell-based
[11] = tested on: WT-ERα ZR-75 or MT-ERα MCF-7 xenografts; test: TX-542 in ERα BC xenografts; type: in vivo, nude mice
Method: FIGS. 59A-B: MCF-7 MT-ERa D538G and Y537S xenograft tumors were injected into the mammary fat pad of nude mice. Once the tumors were established (100 mm^3), treatment with either vehicle or TX-542 (10 mg/kg/ip) was commenced and their effect on tumor growth and mice body weights were graphed (n=9 per group).
as §5

[12] = tested on: estrogen receptor-positive breast cancer; test: Growth inhibition of ER-positive breast cancer; type: cell-based
[13] = tested on: MCF-7 MT-ERα Y537S and D538G cells; type: cell-based; conditions: comparators at 200 nM in MCF-7 MT-ERα Y537S cells

In the case of `NCCC(=O)Nc1ccc(C(=O)Nc2ccc(C(=O)NCCc3ccc4ccccc4c3)cc2OCC2CCCCC2)cc1OCCO` [TX-542], the “onset of effect on MT-ERα levels” value (ERα) is reported as “not noticeable until 24 h”, the “growth of lung and bone metastasis” value ([1]; 10 mg/kg/ip) is reported as “decrease the growth of lung metastasis” and the “animals that formed mets” value ([1]; within 4 weeks, treatment started immediately after intracardiac injection) is reported as 1/6. The bound to proteins (Protein binding) was 75%, the “invasion of BC cells expressing MT-ERα” value [2] was “potently affects the invasion” and the “soft agar colony formation” value (MCF-7 MT-ERα Y537S cells) was “potently reduced soft agar colony formation”. The ERE-driven transcription (MT-ERα [3]) was “decrease transcription”, the clonogenic survival [4] was “significantly reduced the survival” and the “activity against ER-null cells” value [5] was “no activity”. The apoptotic cell death [6] was “induced apoptotic cell death”, the IC50 ([7]; MCF-7, ZR-75 or T47-D cells expressing MT-ERα, read-out: IC50, antiproliferative) was 20 to 50 nM and the IC50 ([7]; MT-ERα alone (ZR-75 and T47-D) or with WT-ERa (MCF-7), read-out: IC50 in multiple MT-ERα models) was less than 50 nM. The “level in tumor tissue” value ([8]; 24 h after the last dose, daily i.p. 10 mg/kg) was greater than 0.1 mg/g, the “time to steady state levels in tumor” value ([8]; MCF-Y537S xenografts, daily i.p. 10 mg/kg) was 5 days and the half-life ([8]; mouse, plasma, intraperitoneal) was 8 h. The concentration at 24 h ([8]; mouse, tumor, intraperitoneal, 10 mg/kg, 24 h after the last dose, read-out: corresponding tumor concentration) was greater than 200 nM, the “activity against non-tumorigenic breast epithelial cells” value [9] was “no activity” and the “MT-ERα DNA binding” value (MT-ERα [10]) was “blocks both basal and estradiol-induced MT-ERα DNA binding”. For the same compound, the “growth of established xenografts” value ([11]; 10 mg/kg/ip) was “potent activity”, the mouse body weights ([11]; 10 mg/kg/ip) was “no effect on mouse body weights” and the “renal and liver parameters, histopathology, clinical chemistry” value ([11]; treated animals) was “lack of change in renal and liver parameters”. The “growth inhibition of ER-positive breast cancer” value [12] was “strong growth inhibition”, the “specificity for ER-positive cells” value [12] was “high specificity” and the “spheroid size or architecture” value [13] was “disrupted spheroid architecture”.
